Strand notation (5' to 3'): a small letter for the sugar, then the base; units joined by * are phosphorothioate-linked, units joined directly phosphodiester-linked; [ ] holds rarer units or linkages, { } end groups; capitals alone tell only the bases. e = 2'-O-(2-methoxyethyl) (MOE); [5mC] = 5-methylcytosine; d = 2'-deoxy (DNA)
Tested on: human PKK mRNA
Assay: Antisense inhibition of human PKK mRNA in HepaRG cells, 5,000 nM (Example 2)
Assay type: cell-based
Procedure, shortened: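 Chimeric MOE gapmers with full phosphorothioate backbones were tested once at 5,000 nM in electroporated HepaRG cells. After about 24 hours, quantitative PCR measured PKK mRNA relative to untreated control cells.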

[1] = Table 13, human PKK mRNA in HepaRG cells, 5-10-5 gapmers
[2] = Table 9 experiment, HepaRG cells, 20,000 cells per well, electroporation with 5,000 nM antisense oligonucleotide, approx. 24 hours, PKK mRNA by RT-PCR (RTS3454), relative to untreated control cells
[3] = Table 10 experiment, HepaRG cells, 20,000 cells per well, electroporation with 5,000 nM antisense oligonucleotide, approx. 24 hours, PKK mRNA by RT-PCR (RTS3454), relative to untreated control cells
[4] = HepaRG cells, 5,000 nM antisense oligonucleotide, 5-10-5 gapmers, Table 17
[5] = HepaRG cells, electroporation, 5,000 nM antisense oligonucleotide, approx. 24 hours, primer probe set RTS3454, relative to untreated control cells, Table 11
[6] = human PKK mRNA, HepaRG cells, 5-10-5 motif oligonucleotides targeting SEQ ID NO: 1 and 10
[7] = human PKK mRNA in HepaRG cells, 5-10-5 gapmers, Table 14

547580 (eA*eT*e[5mC]*eA*e[5mC]*dT*dG*dT*d[5mC]*d[5mC]*dT*dA*dT*dA*dA*e[5mC]*eT*e[5mC]*eT*eA; antisense) [compound 547580]
% inhibition [1]: 61%

547487 (antisense eT*eG*eT*eG*eT*dT*dT*dG*d[5mC]*dA*dA*dA*d[5mC]*dT*dA*eA*eG*eG*eG*eA) [compound 547487]
% inhibition [2]: 72%
% inhibition [3]: 61%

547063 (e[5mC]*eG*eT*e[5mC]*eA*dT*dG*d[5mC]*dT*dT*dA*d[5mC]*d[5mC]*dT*dT*eT*e[5mC]*eT*e[5mC]*e[5mC]; antisense) [compound 547063]
% inhibition [4]: 23%

546238 (e[5mC]*eT*eT*eT*eT*dG*d[5mC]*dA*dG*dG*dT*dT*dA*dA*dA*eA*eG*eG*e[5mC]*eT; antisense) [compound 546238]
% inhibition (Table 7, HepaRG cells, electroporation with 5,000 nM antisense oligonucleotide, approx. 24 hours, PKK mRNA by RT-PCR (RTS3454), relative to untreated control cells): 63%

546393 (eT*e[5mC]*eT*e[5mC]*eA*dG*dT*dT*dG*d[5mC]*dG*dA*d[5mC]*d[5mC]*dT*e[5mC]*eG*e[5mC]*eA*eT; antisense) [compound 546393]
% inhibition [5]: 77%

546811 (eT*eG*eG*eA*e[5mC]*dA*dT*d[5mC]*d[5mC]*dT*dT*d[5mC]*d[5mC]*d[5mC]*d[5mC]*eT*e[5mC]*eG*e[5mC]*eA; antisense) [compound 546811]
% inhibition [1]: 49%

547660 (eA*eA*e[5mC]*eT*eA*dT*dA*dA*d[5mC]*dA*dG*dT*dA*dT*d[5mC]*eA*e[5mC]*e[5mC]*eG*eT; antisense) [compound 547660]
% inhibition [6]: 68%

547600 (antisense eT*eT*eT*e[5mC]*e[5mC]*dT*dA*dT*dA*dA*d[5mC]*dT*dA*dT*dA*eA*e[5mC]*eA*eA*eT) [compound 547600]
% inhibition [7]: 26%

546447 (eG*eT*e[5mC]*eA*e[5mC]*d[5mC]*dA*dT*dA*dG*dA*d[5mC]*d[5mC]*d[5mC]*dA*eG*eA*eA*eT*e[5mC]; antisense) [compound 546447]
% inhibition (HepaRG cells, electroporation, 5,000 nM antisense oligonucleotide, approx. 24 hours, primer probe set RTS3454, relative to untreated control cells, Table 12): 68%

547442 (antisense eT*eG*eG*eT*eG*dT*d[5mC]*d[5mC]*dT*dA*dT*dG*dA*dG*dT*eG*eA*e[5mC]*e[5mC]*e[5mC]) [compound 547442]
% inhibition (Table 8, HepaRG cells, electroporation with 5,000 nM antisense oligonucleotide, approx. 24 hours, PKK mRNA by RT-PCR (RTS3454), relative to untreated control cells): 42%

548724 (DNA eT*e[5mC]*eA*d[5mC]*dT*dG*dT*dA*d[5mC]*dT*dA*dG*dT*eT*eT*e[5mC]*e[5mC]; antisense) [compound 548724]
% inhibition (HepaRG cells, 5,000 nM antisense oligonucleotide, human PKK mRNA, Table 18): 61%

547706 (antisense eT*eG*e[5mC]*e[5mC]*eT*d[5mC]*d[5mC]*dT*dG*dG*d[5mC]*dA*dG*d[5mC]*d[5mC]*eT*eT*e[5mC]*eA*eA) [compound 547706]
% inhibition (HepaRG cells, 5,000 nM antisense oligonucleotide, 5-10-5 gapmers, Table 16): 73%

546907 (eA*eT*eA*eA*e[5mC]*dT*dA*dT*dA*dA*d[5mC]*dA*dG*dT*dA*eT*e[5mC]*eA*e[5mC]*e[5mC]; antisense) [compound 546907]
% inhibition [6]: 37%

547770 (antisense eT*eG*e[5mC]*eT*eT*dT*d[5mC]*dT*dG*d[5mC]*d[5mC]*d[5mC]*dA*dA*d[5mC]*e[5mC]*eT*e[5mC]*eT*eA) [compound 547770]
% inhibition [4]: 48%

547737 (eT*eG*eG*eT*eG*dG*dT*dG*dG*dG*dA*dT*dT*dG*dG*eT*eG*e[5mC]*eT*eG; antisense) [compound 547737]
% inhibition [4]: 59%

547604 (antisense eA*eT*eA*eT*e[5mC]*dA*d[5mC]*dT*dG*dT*dA*d[5mC]*d[5mC]*dT*dA*eT*eA*eA*e[5mC]*eT) [compound 547604]
% inhibition [7]: 0%

546364 (antisense eG*eG*eA*e[5mC]*eT*dG*d[5mC]*dT*dT*d[5mC]*dT*d[5mC]*dA*dT*dG*e[5mC]*eT*eG*eG*eT) [compound 546364]
% inhibition [5]: 61%

546392 (eG*eA*e[5mC]*e[5mC]*eT*d[5mC]*dG*d[5mC]*dA*dT*dT*dG*dT*d[5mC]*dA*eG*e[5mC]*e[5mC]*e[5mC]*e[5mC]; antisense) [compound 546392]
% inhibition [5]: 72%

546349 (antisense eG*eT*eG*eT*eT*dT*dG*d[5mC]*dA*dA*dA*d[5mC]*dT*dA*dA*eG*eG*eG*eA*e[5mC]) [compound 546349]
% inhibition [2]: 48%
% inhibition [3]: 35%
